From patent EP0535528A1, “Antibacterial 5-Nitro-1-methyl-imidazolyl-3-terbutyl-2-hydroxy-aryl-carbinols” (EURORESEARCH S.r.L., priority 1991, dated 1993)
Converted amounts (≈) assume the structure as drawn. Like-named read-outs stand apart in the source and are kept apart here.

Assays:
[1] = solubility of the isolated product; format: physicochemical
Salmonella typhimurium = experiment: Ames test, mutagenic activity; format: cell-based
[2] = Oral and intraperitoneal acute toxicity in mice (LD50, Probits method); format: in vivo; details: mouse, in vivo, Swiss female mice, 14 days observation
Procedure: (§1) 20 Swiss female albino mice are used for this test of the average weight of 20 g (±2), coming from Nossan breeding .
(§2) Cages: in Makrolon® with saw dust litter, Number of animals per cage: 5 Acclimation period: 1 week Temperature: 22°C (± 2°C) Humidity : 60%, Diet: pellets for mice produced by Nossan firm, Water ad libitum Fast before the treatment: 16 hours
(§3) Oral by gastric route and intraperitoneal.
(§4) The substances to be studied: EU11100, EU11102, EU11103, EU11104 are treated with 0.5% carboxymethylcellulose in spring water, for the oral administration, whereas the same substances are intraperitoneally administered in the form of a physiological solution .
(§5) For each of the above mentioned substances, a mother suspension is prepared having a concentration in the active ingredient of 250 mg/ml for the oral administration, and analogously a mother suspension is prepared for the intraperitoneal administration having a concentration of the desired active principle of 100 mg/ml.
(§6) The following doses are used • a) oral route: 5000 mg/kg • b) intraperitoneal route : 2000 mg/kg
(§7) If mortality is observed at the above mentioned doses, other doses are administered in order to obtain a dose-response curve.
(§8) 5 animals are used for every utilized concentration.
(§9) After the administration of the above substances the animals are kept under observation for 14 days , during which the mortality and the behaviour is observed.
(§10) LD₅₀ is determined on the base of the cumulative mortality observed in the successive 14 days after the administration by using the Probits method.

Swiss female albino mice = experiment: as above; format: in vivo; details: for Mortality per day: 5 animals; for mortality: intraperitoneal
Procedure: as §1, §2, §3, §4, §5, §6, §7, §8, §9, §10

Helicobapter pylori [3] = experiment: Inhibition halos of the bacterial growth (impregnated disks on agar); format: cell-based
Procedure: Comparison substance: Metronidazole Solubilization of the substances : All the substances to be studied are dissolved at room temperature in DMSO.
Some commercially available antibiogram disks are so impregnated with the above mentioned compounds that each disk has concentration equal to 10, 1, 0.1, 0.01 µg.
10 strains of Helicobapter pylori are used of recent clinical isolation.
Columbia Blood Agar Base is used, containing 5% of defibrinated horse blood, 2 % of calf serum, 2 vials of Vitox per liter of medium and Vancomicine (10 µg/ml) Trimetoprim lactate(5 µg/ml) and Polimixin B (2.5 U/ml).
0.1 ml of a suspension of the different used strains are uniformly distributed onto Petri plates, containing 20 ml of Columbia Blood Agar base, obtained by taking a sample, by means of a platinum loop, of different colonies from a 48 hours culture, grown in anaerobiosis jars with "Gas Pack", without a catalyst and diluted into a physiological solution.
4 disks per plate, previously impregnated with the substances under examination, are then placed onto the agar layer of each plate.
After 48 hours of anaerobiosis incubation, as above described, the inhibition halos of the bacterial growth, produced by the different activity of the substances inside the agar, are evaluated.

Helicobapter pylori [4] = experiment: Minimal inhibiting concentration (agar dilution); format: cell-based
Procedure: Substances under examination: EU11100, EU11102, EU11103, EU11104. Comparison substance: Metronidazole Solubilization of the substances: All the substances to be studied are dissolved at room temperature in DMSO. […] 10 strains of Helicobapter pylori are used of recent clinical isolation […] The sowing of the bacteria, prepared as described in the preceding test is carried out by means a "multi-point inoculator". After 48 hours incubation under the condition described in the preceding test, the plates are examined and the Minimal Inhibiting Concentration is evaluated, namely that dose corresponding to growth absence.

## COc1cc(C(O)c2ncc([N+](=O)[O-])n2C)c(O)c(C(C)(C)C)c1 (stereo not drawn) [EU11100, 5-nitro-1-methyl-imidazolyl-3-terbutyl-2-hydroxy-5-methoxy-phenyl-carbinol]
[1]
  solubility: Soluble in CH₃OH, benzene, acetone, ethyl ether; insoluble in water and ligroin.
Salmonella typhimurium; 1000 µg/capsule, in the absence of metabolic activation
  toxicity to the Salmonella strains: toxic
Salmonella typhimurium; general statement
  mutagenic activity: practically no mutagenic activity
Salmonella typhimurium; strain TA-100, without metabolic activation, 500 µg/capsule
  doubling of the base value: 1.95 times
Salmonella typhimurium; strains other than TA-100, without metabolic activation
  signal in other strains: do not give rise to any particular signal
Salmonella typhimurium; with metabolic activation, 250, 500 and 1000 µg/capsule
  spontaneous reversion of Salmonella: does not increase the spontaneous reversion of Salmonella
[2]; po, per os, read-out: LD50 os
  LD50 at 336 h: > 5000 mg/kg
[2]; ip, read-out: LD50 i.p.
  LD50 at 336 h: 890 mg/kg
Swiss female albino mice; Swiss female mice, ip, 14 days observation, 20160 min
  LD50 i.p.: LD50 i.p.= 890 mg/Kg (confidence limits: 781 - 1014)
Swiss female albino mice; ip, 500 mg/Kg
  Observation on the behaviour: 500 mg/Kg: no alteration
Swiss female albino mice; ip, 500 mg/Kg, day 1
  Mortality per day: 0
Swiss female albino mice; ip, 750 mg/Kg
  Observation on the behaviour: 750 mg/Kg: motor activity reduction
Swiss female albino mice; ip, 750 mg/Kg, day 1
  Mortality per day: 1
Swiss female albino mice; ip, 1000 mg/Kg, day 1
  Mortality per day: 3
Swiss female albino mice; ip, 1500 mg/Kg, day 1
  Mortality per day: 5
Swiss female albino mice; ip, 2000 mg/Kg, day 1
  Mortality per day: 5
Swiss female albino mice; ip, doses 2000 - 1500 - 1000 mg/Kg
  Death within (time): 6 to 24 h
Swiss female albino mice; ip, doses 2000 - 1500 - 1000 mg/Kg, after 15-30'
  Observation on the behaviour: considerable behaviouristic alteration, such as the loss of body-righting reflex
Swiss female albino mice; ip, doses 2000 - 1500 - 1000 mg/Kg, after 15-30', listed as EU 11100
  Observation on the behaviour: considerable reduction motor activity and subsequent loss of body righting reflex
Swiss female albino mice; mice, 1500 mg/kg
  mortality: 100%
Swiss female albino mice; mice, 2000 mg/kg
  mortality: 100%
Swiss female albino mice; mice, intraperitoneal, 2000, 1500 and 1000 mg/kg
  toxicity when intraperitoneally administered: toxic
Swiss female albino mice; mice, oral, 5000 mg/kg
  toxicity when orally administered: not toxic
Swiss female albino mice; os, 5000 mg/Kg
  Observation on the behaviour: No alteration
Swiss female albino mice; os, 5000 mg/Kg, day 1
  Mortality per day: 0
Swiss female albino mice; os, 5000 mg/Kg, day 2
  Mortality per day: 0
Swiss female albino mice; os, 5000 mg/Kg, day 3
  Mortality per day: 0
Swiss female albino mice; os, 5000 mg/Kg, day 4
  Mortality per day: 0
Swiss female albino mice; os, 5000 mg/Kg, day 5
  Mortality per day: 0
Swiss female albino mice; os, 5000 mg/Kg, day 6
  Mortality per day: 0
Swiss female albino mice; os, 5000 mg/Kg, day 7
  Mortality per day: 0
Swiss female albino mice; os, 5000 mg/Kg, day 8
  Mortality per day: 0
Swiss female albino mice; os, 5000 mg/Kg, day 9
  Mortality per day: 0
Swiss female albino mice; os, 5000 mg/Kg, day 10
  Mortality per day: 0
Swiss female albino mice; os, 5000 mg/Kg, day 11
  Mortality per day: 0
Swiss female albino mice; os, 5000 mg/Kg, day 12
  Mortality per day: 0
Swiss female albino mice; os, 5000 mg/Kg, day 13
  Mortality per day: 0
Swiss female albino mice; os, 5000 mg/Kg, day 14
  Mortality per day: 0
Helicobapter pylori [3]; 10 strains, 0.1 µg/disk
  activity against the Helicobapter pylori strains used: still able to produce halos against all the strains used
Helicobapter pylori [3]; average of 10 strains, 10 µg/disk
  Inhibition halo (mm), Average: 43.7 mm
Helicobapter pylori [3]; strain 1, 0.01 µg/disk
  Inhibition halo (mm) at the concentration (µg/disk): 0 mm
Helicobapter pylori [3]; strain 1, 0.1 µg/disk
  Inhibition halo (mm) at the concentration (µg/disk): 26 mm
Helicobapter pylori [3]; strain 1, 1 µg/disk
  Inhibition halo (mm) at the concentration (µg/disk): 35 mm
Helicobapter pylori [3]; strain 1, 10 µg/disk
  Inhibition halo (mm) at the concentration (µg/disk): 50 mm
Helicobapter pylori [3]; strain 2, 0.01 µg/disk
  Inhibition halo (mm) at the concentration (µg/disk): 0 mm
Helicobapter pylori [3]; strain 2, 1 µg/disk
  Inhibition halo (mm) at the concentration (µg/disk): 30 mm
Helicobapter pylori [3]; strain 2, 10 µg/disk
  Inhibition halo (mm) at the concentration (µg/disk): 44 mm
Helicobapter pylori [3]; strain 3, 0.01 µg/disk
  Inhibition halo (mm) at the concentration (µg/disk): 0 mm
Helicobapter pylori [3]; strain 3, 0.1 µg/disk
  Inhibition halo (mm) at the concentration (µg/disk): 14 mm
Helicobapter pylori [3]; strain 3, 1 µg/disk
  Inhibition halo (mm) at the concentration (µg/disk): 30 mm
Helicobapter pylori [3]; strain 3, 10 µg/disk
  Inhibition halo (mm) at the concentration (µg/disk): 38 mm
Helicobapter pylori [3]; strain 4, 0.01 µg/disk
  Inhibition halo (mm) at the concentration (µg/disk): 0 mm
Helicobapter pylori [3]; strain 4, 0.1 µg/disk
  Inhibition halo (mm) at the concentration (µg/disk): 26 mm
Helicobapter pylori [3]; strain 4, 1 µg/disk
  Inhibition halo (mm) at the concentration (µg/disk): 35 mm
Helicobapter pylori [3]; strain 4, 10 µg/disk
  Inhibition halo (mm) at the concentration (µg/disk): 50 mm
Helicobapter pylori [3]; strain 5, 0.01 µg/disk
  Inhibition halo (mm) at the concentration (µg/disk): 0 mm
Helicobapter pylori [3]; strain 5, 0.1 µg/disk
  Inhibition halo (mm) at the concentration (µg/disk): 12 mm
Helicobapter pylori [3]; strain 5, 1 µg/disk
  Inhibition halo (mm) at the concentration (µg/disk): 22 mm
Helicobapter pylori [3]; strain 5, 10 µg/disk
  Inhibition halo (mm) at the concentration (µg/disk): 38 mm
Helicobapter pylori [3]; strain 6, 0.01 µg/disk
  Inhibition halo (mm) at the concentration (µg/disk): 0 mm
Helicobapter pylori [3]; strain 6, 0.1 µg/disk
  Inhibition halo (mm) at the concentration (µg/disk): 22 mm
Helicobapter pylori [3]; strain 6, 1 µg/disk
  Inhibition halo (mm) at the concentration (µg/disk): 34 mm
Helicobapter pylori [3]; strain 6, 10 µg/disk
  Inhibition halo (mm) at the concentration (µg/disk): 48 mm
Helicobapter pylori [3]; strain 7, 0.01 µg/disk
  Inhibition halo (mm) at the concentration (µg/disk): 0 mm
Helicobapter pylori [3]; strain 7, 0.1 µg/disk
  Inhibition halo (mm) at the concentration (µg/disk): 12 mm
Helicobapter pylori [3]; strain 7, 1 µg/disk
  Inhibition halo (mm) at the concentration (µg/disk): 28 mm
Helicobapter pylori [3]; strain 7, 10 µg/disk
  Inhibition halo (mm) at the concentration (µg/disk): 35 mm
Helicobapter pylori [3]; strain 8, 0.01 µg/disk
  Inhibition halo (mm) at the concentration (µg/disk): 0 mm
Helicobapter pylori [3]; strain 8, 0.1 µg/disk
  Inhibition halo (mm) at the concentration (µg/disk): 21 mm
Helicobapter pylori [3]; strain 8, 10 µg/disk
  Inhibition halo (mm) at the concentration (µg/disk): 48 mm
Helicobapter pylori [3]; strain 9, 0.01 µg/disk
  Inhibition halo (mm) at the concentration (µg/disk): 0 mm
Helicobapter pylori [3]; strain 9, 1 µg/disk
  Inhibition halo (mm) at the concentration (µg/disk): 28 mm
Helicobapter pylori [3]; strain 9, 10 µg/disk
  Inhibition halo (mm) at the concentration (µg/disk): 43 mm
Helicobapter pylori [3]; strain 10, 0.01 µg/disk
  Inhibition halo (mm) at the concentration (µg/disk): 0 mm
Helicobapter pylori [3]; strain 10, 0.1 µg/disk
  Inhibition halo (mm) at the concentration (µg/disk): 14 mm
Helicobapter pylori [3]; strain 10, 10 µg/disk
  Inhibition halo (mm) at the concentration (µg/disk): 43 mm
Helicobapter pylori [4]; 10 strains
  MIC50: 0.03 µg/mL (≈ 0.0895 µM)
  MIC90: 0.06 µg/mL (≈ 0.179 µM)
  MIC range: 0.015 to 0.016 µg/mL
Helicobapter pylori [4]; in words, compared with Metronidazole
  MIC values: very low MIC values
Helicobapter pylori [4]; strain 1
  MIC: 0.12 µg/mL (≈ 0.358 µM)
Helicobapter pylori [4]; strain 2
  MIC: 0.03 µg/mL (≈ 0.0895 µM)
Helicobapter pylori [4]; strain 3
  MIC: 0.03 µg/mL (≈ 0.0895 µM)
Helicobapter pylori [4]; strain 4
  MIC: 0.03 µg/mL (≈ 0.0895 µM)
Helicobapter pylori [4]; strain 5
  MIC: 0.015 µg/mL (≈ 0.0447 µM)
Helicobapter pylori [4]; strain 6
  MIC: 0.03 µg/mL (≈ 0.0895 µM)
Helicobapter pylori [4]; strain 7
  MIC: 0.06 µg/mL (≈ 0.179 µM)
Helicobapter pylori [4]; strain 8
  MIC: 0.03 µg/mL (≈ 0.0895 µM)
Helicobapter pylori [4]; strain 9
  MIC: 0.03 µg/mL (≈ 0.0895 µM)
Helicobapter pylori [4]; strain 10
  MIC: 0.03 µg/mL (≈ 0.0895 µM)
